Experimental data published in US20220168206A1, “ACTIVE AGENT FOR USE IN HAIR GROWTH REGULATION” (MONASTERIUM LABORATORY SKIN & HAIR RESEARCH SOLUTIONS GMBH, priority 2019, published 2022).

What was measured:
[1] = tested on: TAS2R4 in anagen hair follicles; test: Inactivation of TAS2R4 with BCML in cultured hair follicles; type: cell-based, human
Protocol: For analyzing the effect of inactivating TAS2R4, by the inverse agonist Nα,Nα-bis(carboxymethyl)-l-lysine (BCML), hair follicles were cultured in WEM medium supplemented with 2 mM L-glutamine, 10 ng/mL hydrocortisone, 10 μg/mL insulin and 1% penicillin/streptomycin mix (WCM medium), and treated either with 120 μM BCML (Sigma-Aldrich, cat. 14580) diluted in WCM or vehicle (WCM medium) according to the following procedure:
(§1) Day 0: Isolation of anagen hair follicles
Day 1: Change media, application of the substance corresponding to experimental groups (control group: WCM, experimental group: 120 μM BCML)
Day 7: Collection and freezing of hair follicles for analyses

[2] = tested on: TAS2R4 in human anagen hair follicles; test: Activation of TAS2R4 with Rebaudioside A in cultured hair follicles; type: cell-based
Protocol: (§2) For analyzing the effect of activating TAS2R4 by the agonist Rebaudioside A, human anagen hair follicles from 2 donors were cultured in WEM medium supplemented with 2 mM L-glutamine, 10 ng/mL hydrocortisone, 10 μg/mL insulin and 1% penicillin/streptomycin mix (WCM medium), and treated either with 200 μM Rebaudioside A (Sigma-Aldrich, cat. 01432) diluted in DMSO or vehicle (0.5% DMSO in WCM medium) according to the following procedure:
as §1
Day 1: Change WCM media, application of the substance corresponding to experimental groups (control group: 0.5% DMSO, experimental group: 200 μM Rebaudioside A)
(§3) Day 6: Collection and freezing of hair follicles for analyses

[3] = tested on: TAS2R4 in anagen hair follicles; test: Activation of TAS2R4 with Rubusoside in cultured hair follicles; type: cell-based, human
Protocol: as §2, with “Rubusoside,” for “Rebaudioside A, human anagen”, “follicles” for “follicles from 2 donors”, “50” for “200”, “Rubusoside” for “Rebaudioside A”, “62933)” for “01432)”, “(0.05%” for “(0.5%”
as §1
Day 1: Change media, application of the substance corresponding to experimental groups (control group: 0.05% DMSO, experimental group: 50 μM Rubusoside)
as §3

[4] = tested on: TAS2R4 in anagen hair follicles; test: Activation of TAS2R4 with Stevioside in cultured hair follicles; type: cell-based, human
Protocol: To determine the effect of activating TAS2R4 by the agonist Stevioside, anagen hair follicles were cultured in WEM medium supplemented with 2 mM L-glutamine, 10 ng/mL hydrocortisone, 10 μg/mL insulin and 1% penicillin/streptomycin mix (WCM medium), and treated either with 200 μM Stevioside (Sigma-Aldrich, cat. 50956) diluted in DMSO or vehicle (0.2% DMSO in WCM medium) according to the following procedure: Day 0: Isolation of anagen hair follicles Day 1: Change media, application of the substance corresponding to experimental groups (control group: 0.2% DMSO, experimental group: 200 μM Stevioside) Day 2: Rest Day 3: Change media Day 4: Rest Day 5: Change media Day 6: Rest Day 7: Collection and freezing of hair follicles for analyses

[5] = 120 μM BCML vs vehicle (WCM), collection day 7
[6] = 200 μM Rebaudioside A vs 0.5% DMSO, collection day 6
[7] = 200 μM Stevioside vs 0.2% DMSO, collection day 7

NCCCC[C@@H](C(=O)O)N(CC(=O)O)CC(=O)O [BCML, Nα,Nα-bis(carboxymethyl)-l-lysine]
apoptosis [1, 5]: does not affect
hair matrix keratinocyte proliferation [1, 5]: increases
pigmentation [1, 5]: increases
proportion of hair follicles in anagen stage [1, 5]: increases
hair growth ([1]; summary statement, anagen hair follicles, BCML): hair growth promotion

C=C1C[C@@]23CC[C@H]4[C@@](C)(CCC[C@@]4(C)C(=O)O[C@@H]4O[C@H](CO)[C@@H](O)[C@H](O)[C@H]4O)[C@@H]2CC[C@]1(O[C@@H]1O[C@H](CO)[C@@H](O)[C@H](O[C@@H]2O[C@H](CO)[C@@H](O)[C@H](O)[C@H]2O)[C@H]1O[C@@H]1O[C@H](CO)[C@@H](O)[C@H](O)[C@H]1O)C3 [Rebaudioside A]
proportion of hair follicles in catagen stage ([2]; 200 μM Rebaudioside A vs 0.5% DMSO, 2 donors, collection day 6): increases
apoptosis [2, 6]: increases
hair matrix keratinocyte proliferation [2, 6]: decreases
pigmentation [2, 6]: hypopigmentation
hair growth ([2]; summary statement, Rebaudioside A): hair growth inhibition

C=C1C[C@@]23CC[C@H]4[C@@](C)(CCC[C@@]4(C)C(=O)O[C@@H]4O[C@H](CO)[C@@H](O)[C@H](O)[C@H]4O)[C@@H]2CC[C@]1(O[C@@H]1O[C@H](CO)[C@@H](O)[C@H](O)[C@H]1O)C3 [Rubusoside]
proportion of human hair follicles in catagen stage ([3]; 50 μM Rubusoside vs 0.05% DMSO, collection day 6): increases
hair growth ([3]; summary statement, Rubusoside): hair growth inhibition

C=C1C[C@@]23CC[C@H]4[C@@](C)(CCC[C@@]4(C)C(=O)O[C@@H]4O[C@H](CO)[C@@H](O)[C@H](O)[C@H]4O)[C@@H]2CC[C@]1(O[C@@H]1O[C@H](CO)[C@@H](O)[C@H](O)[C@H]1O[C@@H]1O[C@H](CO)[C@@H](O)[C@H](O)[C@H]1O)C3 [Stevioside]
apoptosis [4, 7]: does not affect
hair matrix keratinocyte proliferation [4, 7]: decreases
proportion of hair follicles in catagen stage [4, 7]: increases
hair growth ([4]; summary statement, Stevioside): hair growth inhibition
